Experimental data from patent US9199962B2, “Substituted azaheterocycles for the treatment of cancer” (Merck Patent GmbH, priority 2011, dated 2015).
Like-named read-outs stand apart in the source and are kept apart here.

Legend:
[1] = target: T1, focal adhesion kinase (FAK) autophosphorylation at tyrosine 397 in HT29 cells (Homo sapiens, UniProt Q05397); experiment: Cellular testing of FAK inhibitors: FAK autophosphorylation at tyrosine 397 in HT29 cells (Luminex-based assay); type: cell-based; settings: Table 2, phospho-Y397-FAK, 30 min serum-free, read-out: HT-29 IC50
T1 construct: endogenous in cells; host or cells: HT29
Protocol: 2. Assay Principle for Celluar Testing of FAK Inhibitors
Cellular activity of focal adhesion kinase (FAK) is determined by the degree of FAK autophosphorylation at tyrosine 397 using a Luminex-based assay. HT29 cells are plated with 30,000 cells per well of a 96-well plate in 100 μl medium (90% DMEM/10% FCS). At the following day, test compounds are added in a serial dilution under serum-free conditions for 30 min. Then, cells were lysed with 90 μl lysis buffer (20 mM Tris/HCl pH 8.0, 150 mM NaCl, 1% NP40, 10% Glycerol, 1% Phosphatase-Inhibitor II, 20 mM […]-Glycerolphosphat, 0.1% Protease-Inhibitor Cocktail III, 0.01% Benzonase) and lysates were cleared by centrifugation through a 96-well filter plate (0.65 μm). Samples were incubated with Luminex-beads which were coupled with an anti-total FAK antibody overnight at 4° C. with under gentle agitation. For detection of phospho-Y397-FAK a phosphospecific antibody and a species specific PE-labeled secondary antibody are added. The amount of phospho-Y397-FAK is determined in a Luminex100 machine measuring 100 events per well within 60 seconds.
Counts from samples treated with a FAK reference inhibitor are subtracted as pharmacological blank. Counts from samples treated with test compounds are calculated as percent of control from solvent treated (0.3% DMSO) samples. IC50 values were determined using AssayExplorer software.

[2] = target: T2, GST-FAK (N-terminal GST fusion with truncated human FAK (376-1052 (end) amino acids)) (Homo sapiens, UniProt Q05397); experiment: Biochemical enzyme assay for FAK activity (Caliper LC3000 mobility shift); settings: 100 uM ATP, read-out: FAK IC50
T2 construct: truncated human FAK (376-1052 (end) amino acids)
Method in brief: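 Inhibitor dose series in DMSO were incubated 90 min at 25 °C with truncated GST-tagged human FAK (0.067 ng/µl) and FITC-labelled peptide substrate (1 µM), with ATP at 100 µM and FERM peptide at 1 mM (pH 7.5 HEPES). After EDTA quench, phosphorylated and unphosphorylated peptides were resolved electrophoretically. Percent conversion was fitted for IC50.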

T1 sequence (Q05397 whole entry): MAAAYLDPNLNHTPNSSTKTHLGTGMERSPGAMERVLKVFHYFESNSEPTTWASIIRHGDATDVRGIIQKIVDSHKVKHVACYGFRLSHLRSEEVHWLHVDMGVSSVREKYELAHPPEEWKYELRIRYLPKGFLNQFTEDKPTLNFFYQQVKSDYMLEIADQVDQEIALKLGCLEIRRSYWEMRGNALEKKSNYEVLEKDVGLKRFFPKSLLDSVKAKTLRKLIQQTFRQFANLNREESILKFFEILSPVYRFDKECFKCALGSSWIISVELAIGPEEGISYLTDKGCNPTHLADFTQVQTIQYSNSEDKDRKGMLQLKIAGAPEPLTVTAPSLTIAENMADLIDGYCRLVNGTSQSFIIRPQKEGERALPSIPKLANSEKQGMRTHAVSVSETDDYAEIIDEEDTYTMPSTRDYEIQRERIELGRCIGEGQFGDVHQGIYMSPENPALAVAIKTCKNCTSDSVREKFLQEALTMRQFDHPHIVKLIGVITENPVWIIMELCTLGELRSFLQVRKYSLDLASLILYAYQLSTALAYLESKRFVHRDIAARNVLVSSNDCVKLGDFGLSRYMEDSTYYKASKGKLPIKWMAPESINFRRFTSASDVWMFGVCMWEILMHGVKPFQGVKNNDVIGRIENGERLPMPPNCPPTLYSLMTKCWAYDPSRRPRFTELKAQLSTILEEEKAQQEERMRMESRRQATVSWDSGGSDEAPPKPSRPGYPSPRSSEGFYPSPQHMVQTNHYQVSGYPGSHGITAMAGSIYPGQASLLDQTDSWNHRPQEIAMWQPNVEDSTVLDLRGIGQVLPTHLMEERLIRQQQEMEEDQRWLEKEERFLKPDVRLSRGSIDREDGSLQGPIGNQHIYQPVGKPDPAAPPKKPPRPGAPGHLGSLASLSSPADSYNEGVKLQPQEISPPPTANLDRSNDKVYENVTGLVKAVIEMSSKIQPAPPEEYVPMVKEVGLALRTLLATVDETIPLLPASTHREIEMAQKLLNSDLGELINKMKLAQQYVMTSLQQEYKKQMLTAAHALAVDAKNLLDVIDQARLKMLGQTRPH
T2 sequence (Q05397 376-1052): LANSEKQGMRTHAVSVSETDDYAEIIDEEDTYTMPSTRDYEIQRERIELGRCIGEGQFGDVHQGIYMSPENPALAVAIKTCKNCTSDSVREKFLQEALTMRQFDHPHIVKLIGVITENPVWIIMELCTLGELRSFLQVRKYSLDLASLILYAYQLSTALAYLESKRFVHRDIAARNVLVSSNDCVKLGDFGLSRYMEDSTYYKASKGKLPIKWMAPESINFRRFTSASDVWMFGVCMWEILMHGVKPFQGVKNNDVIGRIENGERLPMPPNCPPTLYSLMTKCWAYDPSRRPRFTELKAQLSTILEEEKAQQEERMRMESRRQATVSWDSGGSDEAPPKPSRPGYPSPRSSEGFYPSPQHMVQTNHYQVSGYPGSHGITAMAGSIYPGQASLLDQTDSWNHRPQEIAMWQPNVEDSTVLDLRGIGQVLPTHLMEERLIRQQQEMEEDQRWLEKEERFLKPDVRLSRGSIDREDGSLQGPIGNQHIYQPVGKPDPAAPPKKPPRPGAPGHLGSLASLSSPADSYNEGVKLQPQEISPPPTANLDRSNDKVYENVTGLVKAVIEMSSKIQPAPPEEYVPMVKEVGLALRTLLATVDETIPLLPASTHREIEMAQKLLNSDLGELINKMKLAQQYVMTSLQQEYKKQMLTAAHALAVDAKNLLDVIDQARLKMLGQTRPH

| Compound | IC50 [1] [nM] | IC50 ([2]; Table 2) [nM] | IC50 ([2]; Table 5) [nM] |
| --- | --- | --- | --- |
| NC(=O)CCNC(=O)c1cc(NCc2ccc(F)cc2F)nc(-c2cncc(C(F)(F)F)c2)n1 [Compound 41, 6-(2,4-Difluoro-benzylamino)-2-(5-trifluoromethyl-pyridin-3-yl)-pyrimidine-4-carboxylic acid (2-carbamoyl-ethyl)-amide] | 100 to 1000 | < 100 |  |
| CCN(CC)C(=O)CCNC(=O)c1cc(NCc2ccc(F)cc2F)nc(-c2cncc(C(F)(F)F)c2)n1 [Compound 42, 6-(2,4-Difluoro-benzylamino)-2-(5-trifluoromethyl-pyridin-3-yl)-pyrimidine-4-carboxylic acid (2-diethylcarbamoyl-ethyl)-amide] | 1000 to 10000 | < 100 |  |
| O=C(NCCC(=O)N1CCOCC1)c1cc(NCc2ccc(F)cc2F)nc(-c2cncc(C(F)(F)F)c2)n1 [Compound 43, 6-(2,4-Difluoro-benzylamino)-2-(5-trifluoromethyl-pyridin-3-yl)-pyrimidine-4-carboxylic acid (3-morpholin-4-yl-3-oxo-propyl)-amide] | 1000 to 10000 | < 100 |  |
| CN1CCN(C(=O)CCNC(=O)c2cc(NCc3ccc(F)cc3F)nc(-c3cncc(C(F)(F)F)c3)n2)CC1 [Compound 44, 6-(2,4-Difluoro-benzylamino)-2-(5-trifluoromethyl-pyridin-3-yl)-pyrimidine-4-carboxylic acid [3-(4-methyl-piperazin-1-yl)-3-oxo-propyl]-amide] | 1000 to 10000 | < 100 |  |
| CN(C)CCCNC(=O)c1cc(NCc2ccc(F)cc2F)nc(-c2cncc(C(F)(F)F)c2)n1 [Compound 45, 6-(2,4-Difluoro-benzylamino)-2-(5-trifluoromethyl-pyridin-3-yl)-pyrimidine-4-carboxylic acid (3-dimethylamino-propyl)-amide] | 1000 to 10000 | < 100 |  |
| O=C(NCCCn1ccnc1)c1cc(NCc2ccc(F)cc2F)nc(-c2cncc(C(F)(F)F)c2)n1 [Compound 46, 6-(2,4-Difluoro-benzylamino)-2-(5-trifluoromethyl-pyridin-3-yl)-pyrimidine-4-carboxylic acid (3-imidazol-1-yl-propyl)-amide] | 1000 to 10000 | < 100 |  |
| CN(c1ncccc1CNc1nccc(-c2cncc(C(F)(F)F)c2)n1)S(C)(=O)=O [Compound 251, N-Methyl-N-(3-{[4-(5-trifluoromethyl-pyridin-3-yl)-pyrimidin-2-ylamino]-methyl}-pyridin-2-yl)-methanesulfonamide] |  |  | 1000 to 10000 |
| Fc1ccc(CNc2cc(-c3cncc(C(F)(F)F)c3)ncn2)c(C(F)(F)F)c1 [Compound 252, (4-Fluoro-2-trifluoromethyl-benzyl)-[6-(5-trifluoromethyl-pyridin-3-yl)-pyrimidin-4-yl]-amine] |  |  | 1000 to 10000 |
| Fc1cc(Cl)ccc1CNc1cc(-c2cncc(C(F)(F)F)c2)ncn1 [Compound 253, (4-Chloro-2-fluoro-benzyl)-[6-(5-trifluoromethyl-pyridin-3-yl)-pyrimidin-4-yl]-amine] |  |  | 1000 to 10000 |
| Fc1ccc(CNc2cc(-c3cncc(C(F)(F)F)c3)ncn2)c(F)c1 [Compound 254, (2,4-Difluoro-benzyl)-[6-(5-trifluoromethyl-pyridin-3-yl)-pyrimidin-4-yl]-amine] |  |  | > 10000 |
| CN(C)C(=O)c1ccccc1Nc1ccnc(-c2cncc(C(F)(F)F)c2)n1 [Compound 255, N,N-Dimethyl-2-[2-(5-trifluoromethyl-pyridin-3-yl)-pyrimidin-4-ylamino]-benzamide] |  |  | > 10000 |
| CNC(=O)c1ccccc1Nc1ccnc(-c2cncc(C(F)(F)F)c2)n1 [Compound 256, N-Methyl-2-[2-(5-trifluoromethyl-pyridin-3-yl)-pyrimidin-4-ylamino]-benzamide] |  |  | > 10000 |
| Cn1cc(-c2cc(NCc3ccc(F)cc3F)nc(-c3cncc(C(F)(F)F)c3)n2)cn1 [Compound 257, (2,4-Difluoro-benzyl)-[6-(1-methyl-1H-pyrazol-4-yl)-2-(5-trifluoromethyl-pyridin-3-yl)-pyrimidin-4-yl]-amine] |  |  | 100 to 1000 |
| Cn1cc(-c2cc(NCc3ccc(F)cc3F)nc(-c3cnn(C)c3)n2)cn1 [Compound 258, [2,6-Bis-(1-methyl-1H-pyrazol-4-yl)-pyrimidin-4-yl]-(2,4-difluoro-benzyl)-amine] |  |  | 1000 to 10000 |
| CN1CCN(C(=O)c2cc(NCc3ccc(F)cc3F)nc(-c3cncc(C(F)(F)F)c3)n2)CC1 [Compound 259, [6-(2,4-Difluoro-benzylamino)-2-(5-trifluoromethyl-pyridin-3-yl)-pyrimidin-4-yl]-(4-methyl-piperazin-1-yl)-methanone] |  |  | 100 to 1000 |
| O=C(c1cc(NCc2ccc(F)cc2F)nc(-c2cncc(C(F)(F)F)c2)n1)N1CCOCC1 [Compound 260, [6-(2,4-Difluoro-benzylamino)-2-(5-trifluoromethyl-pyridin-3-yl)-pyrimidin-4-yl]-morpholin-4-yl-methanone] |  |  | < 100 |
| O=C(Nc1cccnc1)c1cc(NCc2ccc(F)cc2F)nc(-c2cncc(C(F)(F)F)c2)n1 [Compound 261, 6-(2,4-Difluoro-benzylamino)-2-(5-trifluoromethyl-pyridin-3-yl)-pyrimidine-4-carboxylic acid pyridin-3-ylamide] |  |  | 100 to 1000 |
| CNC(=O)C1(NC(=O)c2cc(NCc3ccc(F)cc3F)nc(-c3cncc(C(F)(F)F)c3)n2)CC1 [Compound 262, 6-(2,4-Difluoro-benzylamino)-2-(5-trifluoromethyl-pyridin-3-yl)-pyrimidine-4-carboxylic acid (1-methylcarbamoyl-cyclopropyl)-amide] |  |  | 100 to 1000 |
| CC(NC(=O)c1cc(NCc2ccc(F)cc2F)nc(-c2cncc(C(F)(F)F)c2)n1)C(N)=O (centres unmarked) [Compound 263, 6-(2,4-Difluoro-benzylamino)-2-(5-trifluoromethyl-pyridin-3-yl)-pyrimidine-4-carboxylic acid (1-carbamoyl-ethyl)-amide] |  |  | < 100 |
| CN(C)C(=O)c1cc(NCc2ccc(F)cc2F)nc(-c2cncc(C(F)(F)F)c2)n1 [Compound 264, 6-(2,4-Difluoro-benzylamino)-2-(5-trifluoromethyl-pyridin-3-yl)-pyrimidine-4-carboxylic acid dimethylamide] |  |  | < 100 |
| CN(c1ncccc1CNc1ccnc(-c2cncc(C(F)(F)F)c2)n1)S(C)(=O)=O [Compound 265, N-Methyl-N-(3-{[2-(5-trifluoromethyl-pyridin-3-yl)-pyrimidin-4-ylamino]-methyl}-pyridin-2-yl)-methanesulfonamide] |  |  | 1000 to 10000 |
| Fc1ccc(CNc2cc(-c3cncc(C(F)(F)F)c3)nc(-c3cncc(C(F)(F)F)c3)n2)c(F)c1 [Compound 266, [2,6-Bis-(5-trifluoromethyl-pyridin-3-yl)-pyrimidin-4-yl]-(2,4-difluoro-benzyl)-amine] |  |  | 1000 to 10000 |
| CC(Nc1ccnc(-c2cncc(C(F)(F)F)c2)n1)c1ccccc1F (centres unmarked) [Compound 267, [1-(2-Fluoro-phenyl)-ethyl]-[2-(5-trifluoromethyl-pyridin-3-yl)-pyrimidin-4-yl]-amine] |  |  | 100 to 1000 |
| CNC(=O)C(Nc1ccnc(-c2cncc(C(F)(F)F)c2)n1)c1ccccc1 (centres unmarked) [Compound 268, N-Methyl-2-phenyl-2-[2-(5-trifluoromethyl-pyridin-3-yl)-pyrimidin-4-ylamino]-acetamide] |  |  | 1000 to 10000 |
| CNC(=O)C(Nc1ccnc(-c2cncc(C(F)(F)F)c2)n1)c1ccc(O)cc1 (centres unmarked) [Compound 269, 2-(4-Hydroxy-phenyl)-N-methyl-2-[2-(5-trifluoromethyl-pyridin-3-yl)-pyrimidin-4-ylamino]-acetamide] |  |  | > 10000 |
| C[C@@H](Nc1ccnc(-c2cncc(C(F)(F)F)c2)n1)c1ccc(F)cc1 [Compound 270, [(R)-1-(4-Fluoro-phenyl)-ethyl]-[2-(5-trifluoromethyl-pyridin-3-yl)-pyrimidin-4-yl]-amine] |  |  | 100 to 1000 |
| OC[C@H](Nc1ccnc(-c2cncc(C(F)(F)F)c2)n1)c1ccccc1 [Compound 271, (R)-2-Phenyl-2-[2-(5-trifluoromethyl-pyridin-3-yl)-pyrimidin-4-ylamino]-ethanol] |  |  | 100 to 1000 |
| O=C(O)c1cc(NCc2ccc(F)cc2F)nc(-c2cncc(C(F)(F)F)c2)n1 [Compound 272, 6-(2,4-Difluoro-benzylamino)-2-(5-trifluoromethyl-pyridin-3-yl)-pyrimidine-4-carboxylic acid] |  |  | 100 to 1000 |
| COC(=O)c1cc(NCc2ccc(F)cc2F)nc(-c2cncc(C(F)(F)F)c2)n1 [Compound 273, 6-(2,4-Difluoro-benzylamino)-2-(5-trifluoromethyl-pyridin-3-yl)-pyrimidine-4-carboxylic acid methyl ester] |  |  | 100 to 1000 |
